“Also recorded” adds a separate entry of the source.
Key:
[1] = tested on: Mice Having Their Nerves Damaged by Mercurialism; assay: T-shaped labyrinth learning and memory in mice damaged by methylmercuric chloride; format: in vivo; details: for number of mice that reached the standard / number of mice subjected to test: 40 mg/kg,i.p./day for 10 days after MMC 6 mg/kg/day; for average time required for running into the safety area: 40 mg/kg,i.p./day after MMC, average ± S.D.
Method: Male Balb/c mice of 7-weeks age were pre-trained in a T-shaped labylinth 3 times a week so that they learned to go straight from the starting area to the safety area. Then, a group of mice was orally administered methylmercuric chloride (hereinafter referred to as MMC) at a dose of 6 mg/kg/day for 7 days after the mice had reached 8-weeks age. A control group of mice was administered 0.l ml/l0 g/day of saline. The day after the completion of administration of MMC, the compound (I) of the invention was intraperitoneally administered at a dose of 40 mg/kg/day for l0 days. From the 23rd day, the training in the T-shape labylinth was restarted, and the running actions of the mice were observed. At the 7th day (29th day from the beginning of the experiment) and 8th day (30th day from the beginning of the experiment) from the re-starting of the training, the number of mice of each group, that could be subjected to test, was counted; and the number of mice that reached the standard (running into the safety area within 5 seconds) for 8 or more times per ten times trials was counted. In the following Table 6, the number of mice subjected to test is shown as the denominator, and the number of mice that reached the standard is shown as the numerator. Meanwhile, the decrease in number of mice was caused by death due to poisoning from MMC. Also shown in Table 6 are the average times (second) ± S.D. […] required for running into the safety area.

[2] = tested on: neuroblastoma cell Neuro2a; assay: Effect on the neuroblastoma cell Neuro2a (formation and growth of axis-cylinder process); format: cell-based; details: for Length of Axis-cylinder Process / Number of Axis-cylinder Process: average ± S.E.
Method: The nervous cell used in the test was neuroblastoma cell Neuro2a which is readily available and can be cultured in a relatively simple manner.
Neuro2a was floated on a culture medium containing fetal cattle serum (hereinafter referred to as FCS), the culture medium consisting of 90% of Dubecco's Modified Eagle's Medium (hereinafter referred to as MEM) and l0% of FCS and added with l00 U/ml of penicillin G and l00 µg/ml of streptomycin sulfate, and cultured in a carbon dioxide cultivator at 37°C in an air containing 5% of carbon dioxide. The containers used were 60 mm polystyrene dishes, and each of the containers was incubated with l to 2 × l0⁴ cells followed by culturing for 48 hours prior to the test. […] After the lapse of 24 hours and 48 hours, the increase in cells formed with axis-cylinder process, the increase in number of axis-cylinder processes and the elongation of the length of the axis-cylinder process were measured.
The test was conducted while using three dishes for each concentration of each test material.

[3] = in consideration of the molecular weights, 48 hour cultivation

With `CCCCCCCCCCCCCCOCC(COC1(C(=O)O)CC(O)C(NC(C)=O)C(C(O)C(O)CO)O1)OCCCCCCCCCCCCCC` (centres unmarked) [Compound (I)] the “number of mice that reached the standard / number of mice subjected to test” value ([1]; 7th Day of re-started training, standard: safety area within 5 seconds in 8 or more of ten trials) was 4/6, the “average time required for running into the safety area” value ([1]; 7th Day) was 2.5 ± 0.8 s and the “number of mice that reached the standard / number of mice subjected to test” value ([1]; 8th Day of re-started training) was 5/6. For the same compound, the “average time required for running into the safety area” value ([1]; 8th Day) was 3.1 ± 0.7 s, the “remedy and restoration of learning and memory ability” value ([1]; result in words) was “had the effect of remedying and restoring the learning and memory ability” and the “Number of Cells Formed with Axis-cylinder Process” value (“Number of Cells Formed” for short) ([2]; 24 hours, 0.01 µg/ml) was 184. For the same compound, the “Ratio of Cells Formed with Axis-cylinder Process” value (“Ratio of Cells Formed” for short) ([2]; 24 hours, 0.01 µg/ml) was 44.7%, the “Total Number of Cells” value ([2]; 24 hours, 0.01 µg/ml) was 412 and the “Length of Axis-cylinder Process” value ([2]; 24 hours, 0.01 µg/ml) was 107.5 ± 4.56 µm/cell. The “Number of Axis-cylinder Process” value ([2]; 24 hours, 0.01 µg/ml) was 1.2 ± 0.03 per cell, the “Number of Cells Formed” value ([2]; 24 hours, 0.1 µg/ml) was 188 and the “Ratio of Cells Formed” value ([2]; 24 hours, 0.1 µg/ml) was 50.9%. The “Total Number of Cells” value ([2]; 24 hours, 0.1 µg/ml) was 369, the “Length of Axis-cylinder Process” value ([2]; 24 hours, 0.1 µg/ml) was 111.4 ± 4.60 µm/cell and the “Number of Axis-cylinder Process” value ([2]; 24 hours, 0.1 µg/ml) was 1.2 ± 0.03 per cell. For the same compound, the “Number of Cells Formed” value ([2]; 24 hours, 1 µg/ml) was 214, the “Ratio of Cells Formed” value ([2]; 24 hours, 1 µg/ml) was 63.5% and the “Total Number of Cells” value ([2]; 24 hours, 1 µg/ml) was 337. For the same compound, the “Length of Axis-cylinder Process” value ([2]; 24 hours, 1 µg/ml) was 158.7 ± 6.94 µm/cell, the “Number of Axis-cylinder Process” value ([2]; 24 hours, 1 µg/ml) was 1.0 ± 0.02 per cell and the “Number of Cells Formed” value ([2]; 24 hours, 10 µg/ml) was “U.C”. For the same compound, the “Total Number of Cells” value ([2]; 24 hours, 10 µg/ml) was “U.C”, the “Length of Axis-cylinder Process” value ([2]; 24 hours, 10 µg/ml) was “U.C” and the “Number of Axis-cylinder Process” value ([2]; 24 hours, 10 µg/ml) was “U.C”. The “Number of Cells Formed” value ([2]; 48 hours, 0.01 µg/ml) was 249, the “Ratio of Cells Formed” value ([2]; 48 hours, 0.01 µg/ml) was 50.7% and the “Total Number of Cells” value ([2]; 48 hours, 0.01 µg/ml) was 491. For the same compound, the “Length of Axis-cylinder Process” value ([2]; 48 hours, 0.01 µg/ml) was 117.1 ± 4.94 µm/cell, the “Number of Axis-cylinder Process” value ([2]; 48 hours, 0.01 µg/ml) was 1.2 ± 0.03 per cell and the “Number of Cells Formed” value ([2]; 48 hours, 0.1 µg/ml) was 258. The “Ratio of Cells Formed” value ([2]; 48 hours, 0.1 µg/ml) was 55.6%, the “Total Number of Cells” value ([2]; 48 hours, 0.1 µg/ml) was 464 and the “Length of Axis-cylinder Process” value ([2]; 48 hours, 0.1 µg/ml) was 128.8 ± 5.71 µm/cell. The “Number of Axis-cylinder Process” value ([2]; 48 hours, 0.1 µg/ml) was 1.2 ± 0.03 per cell, the “Number of Cells Formed” value ([2]; 48 hours, 1 µg/ml) was 248 and the “Ratio of Cells Formed” value ([2]; 48 hours, 1 µg/ml) was 61.4%. The “Total Number of Cells” value ([2]; 48 hours, 1 µg/ml) was 404, the “Length of Axis-cylinder Process” value ([2]; 48 hours, 1 µg/ml) was 154.7 ± 5.99 µm/cell and the “Number of Axis-cylinder Process” value ([2]; 48 hours, 1 µg/ml) was 1.1 ± 0.03 per cell. The “Number of Cells Formed” value ([2]; 48 hours, 10 µg/ml) was “U.C”, the “Total Number of Cells” value ([2]; 48 hours, 10 µg/ml) was “U.C” and the “Length of Axis-cylinder Process” value ([2]; 48 hours, 10 µg/ml) was “U.C”. The “Number of Axis-cylinder Process” value ([2]; 48 hours, 10 µg/ml) was 1 U.C, the minimal effective concentration ([2]; Mus musculus, N2a, 48 hour cultivation) was 0.01 µg/mL and the “activity relative to GM₁” value [2, 3] was 500 times. The “activity relative to GQ1b” value [2, 3] was 300 times and the “effect on growth of the axis-cylinder process” value ([2]; result in words, compared with the control group) was “significant effect of promoting the growth of the axis-cylinder process; also recorded: extremely high activity for promoting growth or elongation of axis-cylinder process”.

Reference: patent EP0260606A2, “Medicament for curing neurotic disturbance or disorder comprising sialocylglycerolipid” (MECT CORPORATION, priority 1986, dated 1988)
